Data on two compounds can be found in patent US10736857B2, “Treatment of pervasive developmental disorders with redox-active therapeutics” (PTC Therapeutics, Inc., priority 2008, dated 2020).

This assay concerns Human Dermal Fibroblasts from Autistic Patients (ASD fibroblasts). Briefly: Rescue of ASD fibroblasts stressed by addition of L-buthionine-(S,R)-sulfoximine (BSO), Calcein AM viability read-out. Conditions: Fibroblast, 1 mM final BSO, 48 hours, Calcein AM fluorescence, viability relative to non-BSO treated fibroblasts (100%), tested three times, read-out: EC50, protection against ASD (rescue of BSO-stressed ASD fibroblasts). It is filed as cell-based. As for the experimental part:
A screen was performed to identify compounds effective for the amelioration of ASD. Test samples, and solvent controls were tested for their ability to rescue ASD fibroblasts stressed by addition of L-buthionine-(S,R)-sulfoximine (BSO).
MEM (a medium enriched in amino acids and vitamins, catalog no. Gibco 11965) and Fetal Calf Serum were obtained from Invitrogen. Basic fibroblast growth factor and epidermal growth factor were purchased from PeproTech. Penicillin-streptomycin-glutamine mix, L-buthionine (S,R)-sulfoximine, and insulin from bovine pancreas were purchased from Sigma. Calcein AM was purchased from Molecular Probes. Cell culture medium (ATP) was made by combining 75 ml Fetal Calf Serum, 100 U/ml penicillin, 100 μg/ml streptomycin, 2 mM glutamine, 10 ng/ml EGF, and 10 ng/ml bFGF; MEM EBS was added to make the volume up to 500 ml. A 10 mM BSO solution was prepared by dissolving 444 mg BSO in 200 ml of medium with subsequent filter-sterilization. […]
100 μl of PBS containing 1.2 μM Calcein AM were then added to each well. […] After that time the PBS was discarded, the plate gently tapped on a paper towel and fluorescence (excitation/emission wavelengths of 485 nm and 525 nm, respectively) was read on a Gemini fluorescence reader. […]
The viability of non-BSO treated fibroblasts was set as 100%, and the viability of the BSO- and compound-treated cells was calculated as relative to this value.

pEC50: −log10 of the molar value.

In the case of `CC(C)=CCC/C(C)=C/CC/C(C)=C/CCC(C)(O)CCC1=C(C)C(=O)C(C)=C(C)C1=O` (centres unmarked) [2-(3-hydroxy-3,7,11,15-tetramethylhexadeca-6,10,14-trienyl)-3,5,6-trimethylcyclohexa-2,5-diene-1,4-dione], the negative-log EC50 (pEC50) was > 6.82.

Turning to `CCCCCCCCCC1=C(C)C(=O)C(C)=C(C)C1=O` [2,3,5-trimethyl-6-nonylcyclohexa-2,5-diene-1,4-dione], the pEC50 is > 6.82.
